In ChEMBL document CHEMBL4806968, “Hipk inhibitors and methods of use thereof” (2020):
Calls of active or inactive are those of the source. No cut-off for these calls is given here.

Legend:
MDA-MB-231 = experiment: Inhibition of HIPK4 protein expression in human MDA-MB-231 cells by Western blotting analysis; format: functional, cell-based
[1] = target: Mitogen-activated protein kinase kinase kinase kinase 5 (Homo sapiens) (UniProt Q9Y4K4); experiment: Inhibition of MAP4K5 (unknown origin) at 0.5 uM relative to control
[2] = target: Tyrosine-protein kinase receptor UFO (Homo sapiens) (UniProt P30530); experiment: Inhibition of AXL (unknown origin) at 0.5 uM relative to control
Sequence of Tyrosine-protein kinase receptor UFO (Homo sapiens) (P30530 whole entry): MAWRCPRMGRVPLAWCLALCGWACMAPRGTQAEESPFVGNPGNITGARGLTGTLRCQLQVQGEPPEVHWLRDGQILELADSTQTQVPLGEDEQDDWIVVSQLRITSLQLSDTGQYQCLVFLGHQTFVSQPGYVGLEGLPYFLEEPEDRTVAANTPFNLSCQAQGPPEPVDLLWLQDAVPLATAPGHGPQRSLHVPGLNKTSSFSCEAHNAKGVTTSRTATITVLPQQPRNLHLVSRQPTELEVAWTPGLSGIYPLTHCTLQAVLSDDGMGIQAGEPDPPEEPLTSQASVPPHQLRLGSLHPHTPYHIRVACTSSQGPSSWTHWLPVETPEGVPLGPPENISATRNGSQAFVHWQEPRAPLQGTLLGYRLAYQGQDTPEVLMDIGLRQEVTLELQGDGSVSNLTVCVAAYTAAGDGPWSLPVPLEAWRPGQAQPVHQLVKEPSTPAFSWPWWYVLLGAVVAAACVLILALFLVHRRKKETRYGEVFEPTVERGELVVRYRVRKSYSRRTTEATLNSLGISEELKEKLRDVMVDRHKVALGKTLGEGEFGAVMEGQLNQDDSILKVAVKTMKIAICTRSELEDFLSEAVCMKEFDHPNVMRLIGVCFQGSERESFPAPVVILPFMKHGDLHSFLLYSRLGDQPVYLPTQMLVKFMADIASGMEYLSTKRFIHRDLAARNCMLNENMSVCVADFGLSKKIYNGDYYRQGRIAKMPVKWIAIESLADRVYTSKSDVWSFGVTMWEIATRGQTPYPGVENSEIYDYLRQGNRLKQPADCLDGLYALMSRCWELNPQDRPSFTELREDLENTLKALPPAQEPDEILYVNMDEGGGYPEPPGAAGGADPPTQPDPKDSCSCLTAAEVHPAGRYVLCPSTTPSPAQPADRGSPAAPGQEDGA

[3] = target: T1, Tyrosine-protein kinase Mer (Homo sapiens) (UniProt Q12866); experiment: Inhibition of MER (unknown origin) at 0.5 uM relative to control
T1 sequence (whole entry): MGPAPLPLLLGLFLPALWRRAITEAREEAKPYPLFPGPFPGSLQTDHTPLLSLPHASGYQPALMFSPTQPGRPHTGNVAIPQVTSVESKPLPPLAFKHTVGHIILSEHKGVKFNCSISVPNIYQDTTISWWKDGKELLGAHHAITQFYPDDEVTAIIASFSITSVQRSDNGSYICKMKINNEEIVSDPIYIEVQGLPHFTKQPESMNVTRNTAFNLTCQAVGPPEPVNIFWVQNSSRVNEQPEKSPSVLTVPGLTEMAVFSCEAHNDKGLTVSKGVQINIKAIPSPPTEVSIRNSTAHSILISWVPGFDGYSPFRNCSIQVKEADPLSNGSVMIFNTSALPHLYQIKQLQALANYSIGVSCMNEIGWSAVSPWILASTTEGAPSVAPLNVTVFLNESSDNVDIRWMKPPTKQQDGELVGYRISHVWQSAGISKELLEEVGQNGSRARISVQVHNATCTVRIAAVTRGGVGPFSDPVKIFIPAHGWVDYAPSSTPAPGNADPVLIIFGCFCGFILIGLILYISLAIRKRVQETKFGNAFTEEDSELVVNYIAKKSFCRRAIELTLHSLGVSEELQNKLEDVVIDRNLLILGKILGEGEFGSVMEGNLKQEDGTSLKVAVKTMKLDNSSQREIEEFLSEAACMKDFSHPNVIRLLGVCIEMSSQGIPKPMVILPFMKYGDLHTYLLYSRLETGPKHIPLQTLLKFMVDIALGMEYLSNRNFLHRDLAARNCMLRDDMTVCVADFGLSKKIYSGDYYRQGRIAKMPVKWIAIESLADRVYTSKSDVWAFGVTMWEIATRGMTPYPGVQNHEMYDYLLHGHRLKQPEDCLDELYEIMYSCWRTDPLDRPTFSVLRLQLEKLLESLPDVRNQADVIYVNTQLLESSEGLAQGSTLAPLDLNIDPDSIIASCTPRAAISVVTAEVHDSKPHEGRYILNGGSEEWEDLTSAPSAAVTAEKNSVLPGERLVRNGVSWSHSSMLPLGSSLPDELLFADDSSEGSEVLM

[4] = target: Tyrosine-protein kinase Lyn (Homo sapiens) (UniProt P07948); experiment: Inhibition of LYNB (unknown origin) at 0.5 uM relative to control
GILM3 = experiment: Inhibition of cell migration in human GILM3 cells at 1 to 10 uM; format: functional, cell-based; details: dose 1-10 µM
[5] = target: MAP kinase-interacting serine/threonine-protein kinase 2 (Homo sapiens) (UniProt Q9HBH9); experiment: Inhibition of MNK2 (unknown origin) at 0.5 uM relative to control
[6] = target: Homeodomain-interacting protein kinase 3 (Homo sapiens) (UniProt Q9H422); experiment: Inhibition of HIPK3 (unknown origin) assessed as effect on HIPK3 protein level by Western blotting analysis
Sequence of Homeodomain-interacting protein kinase 3 (Homo sapiens) (Q9H422 whole entry, looked up): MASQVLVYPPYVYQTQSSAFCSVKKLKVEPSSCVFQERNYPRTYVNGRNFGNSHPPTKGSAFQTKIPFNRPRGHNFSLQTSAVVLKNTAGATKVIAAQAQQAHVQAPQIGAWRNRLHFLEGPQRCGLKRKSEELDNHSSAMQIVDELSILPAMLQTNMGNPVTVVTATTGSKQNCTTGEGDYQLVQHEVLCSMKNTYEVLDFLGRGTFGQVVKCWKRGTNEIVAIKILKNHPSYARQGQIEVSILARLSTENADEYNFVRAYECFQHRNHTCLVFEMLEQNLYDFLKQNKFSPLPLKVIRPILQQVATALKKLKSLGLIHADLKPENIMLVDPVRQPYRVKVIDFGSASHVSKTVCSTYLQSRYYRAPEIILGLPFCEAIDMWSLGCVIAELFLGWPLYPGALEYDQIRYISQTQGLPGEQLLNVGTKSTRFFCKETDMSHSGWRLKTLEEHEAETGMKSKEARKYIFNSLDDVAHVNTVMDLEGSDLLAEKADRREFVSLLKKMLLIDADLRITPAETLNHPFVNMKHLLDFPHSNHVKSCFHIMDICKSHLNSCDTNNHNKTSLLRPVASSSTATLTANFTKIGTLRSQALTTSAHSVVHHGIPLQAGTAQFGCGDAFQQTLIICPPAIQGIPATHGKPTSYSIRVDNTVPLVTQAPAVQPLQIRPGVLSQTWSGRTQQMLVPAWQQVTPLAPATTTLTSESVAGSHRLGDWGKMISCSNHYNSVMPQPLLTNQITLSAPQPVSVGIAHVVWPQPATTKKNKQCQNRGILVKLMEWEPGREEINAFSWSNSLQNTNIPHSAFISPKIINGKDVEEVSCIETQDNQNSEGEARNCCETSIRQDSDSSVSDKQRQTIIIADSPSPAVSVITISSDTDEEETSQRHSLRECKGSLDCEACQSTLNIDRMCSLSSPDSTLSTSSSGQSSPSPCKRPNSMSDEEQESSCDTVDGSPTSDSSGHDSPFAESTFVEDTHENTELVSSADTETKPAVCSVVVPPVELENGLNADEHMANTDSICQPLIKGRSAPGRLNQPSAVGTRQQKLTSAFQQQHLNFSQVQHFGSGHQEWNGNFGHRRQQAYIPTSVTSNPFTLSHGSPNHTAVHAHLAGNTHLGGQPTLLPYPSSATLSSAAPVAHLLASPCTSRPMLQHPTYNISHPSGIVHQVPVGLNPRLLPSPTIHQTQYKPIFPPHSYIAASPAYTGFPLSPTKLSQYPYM

[7] = target: Dual specificity mitogen-activated protein kinase kinase 4 (Homo sapiens) (UniProt P45985); experiment: Inhibition of MAP2K4 (unknown origin) at 0.5 uM relative to control
[8] = target: Serine/threonine-protein kinase PLK2 (Homo sapiens) (UniProt Q9NYY3); experiment: Inhibition of PLK2 (unknown origin) at 0.5 uM relative to control
[9] = target: Non-receptor tyrosine-protein kinase TNK1 (Homo sapiens) (UniProt Q13470); experiment: Inhibition of TNK1 (unknown origin) at 0.5 uM relative to control
[10] = target: Tyrosine-protein kinase JAK2 (Homo sapiens) (UniProt O60674); experiment: Inhibition of JAK2 (unknown origin) at 0.5 uM relative to control
[11] = target: Mitogen-activated protein kinase 11 (Homo sapiens) (UniProt Q15759); experiment: Inhibition of p38beta (unknown origin) at 0.5 uM relative to control
[12] = target: Tyrosine-protein kinase JAK1 (Homo sapiens) (UniProt P23458); experiment: Inhibition of JAK1 (unknown origin) at 0.5 uM relative to control
[13] = target: Serine/threonine-protein kinase B-raf (Homo sapiens) (UniProt P15056); experiment: Inhibition of BRAF (unknown origin) at 0.5 uM relative to control
[14] = target: SRSF protein kinase 3 (Homo sapiens) (UniProt Q9UPE1); experiment: Inhibition of MSSK1 (unknown origin) at 0.5 uM relative to control
[15] = target: Mitogen-activated protein kinase kinase kinase 9 (Homo sapiens) (UniProt P80192); experiment: Inhibition of MLK1 (unknown origin) at 0.5 uM relative to control
[16] = target: Ephrin type-A receptor 1 (Homo sapiens) (UniProt P21709); experiment: Inhibition of EPHA1 (unknown origin) at 0.5 uM relative to control
[17] = target: Serine/threonine-protein kinase PLK4 (Homo sapiens) (UniProt O00444); experiment: Inhibition of PLK4 (unknown origin) at 0.5 uM relative to control
[18] = target: Platelet-derived growth factor receptor beta (Homo sapiens) (UniProt P09619); experiment: Inhibition of PDGFR-beta (unknown origin) at 0.5 uM relative to control
Sequence of Platelet-derived growth factor receptor beta (Homo sapiens) (P09619 whole entry): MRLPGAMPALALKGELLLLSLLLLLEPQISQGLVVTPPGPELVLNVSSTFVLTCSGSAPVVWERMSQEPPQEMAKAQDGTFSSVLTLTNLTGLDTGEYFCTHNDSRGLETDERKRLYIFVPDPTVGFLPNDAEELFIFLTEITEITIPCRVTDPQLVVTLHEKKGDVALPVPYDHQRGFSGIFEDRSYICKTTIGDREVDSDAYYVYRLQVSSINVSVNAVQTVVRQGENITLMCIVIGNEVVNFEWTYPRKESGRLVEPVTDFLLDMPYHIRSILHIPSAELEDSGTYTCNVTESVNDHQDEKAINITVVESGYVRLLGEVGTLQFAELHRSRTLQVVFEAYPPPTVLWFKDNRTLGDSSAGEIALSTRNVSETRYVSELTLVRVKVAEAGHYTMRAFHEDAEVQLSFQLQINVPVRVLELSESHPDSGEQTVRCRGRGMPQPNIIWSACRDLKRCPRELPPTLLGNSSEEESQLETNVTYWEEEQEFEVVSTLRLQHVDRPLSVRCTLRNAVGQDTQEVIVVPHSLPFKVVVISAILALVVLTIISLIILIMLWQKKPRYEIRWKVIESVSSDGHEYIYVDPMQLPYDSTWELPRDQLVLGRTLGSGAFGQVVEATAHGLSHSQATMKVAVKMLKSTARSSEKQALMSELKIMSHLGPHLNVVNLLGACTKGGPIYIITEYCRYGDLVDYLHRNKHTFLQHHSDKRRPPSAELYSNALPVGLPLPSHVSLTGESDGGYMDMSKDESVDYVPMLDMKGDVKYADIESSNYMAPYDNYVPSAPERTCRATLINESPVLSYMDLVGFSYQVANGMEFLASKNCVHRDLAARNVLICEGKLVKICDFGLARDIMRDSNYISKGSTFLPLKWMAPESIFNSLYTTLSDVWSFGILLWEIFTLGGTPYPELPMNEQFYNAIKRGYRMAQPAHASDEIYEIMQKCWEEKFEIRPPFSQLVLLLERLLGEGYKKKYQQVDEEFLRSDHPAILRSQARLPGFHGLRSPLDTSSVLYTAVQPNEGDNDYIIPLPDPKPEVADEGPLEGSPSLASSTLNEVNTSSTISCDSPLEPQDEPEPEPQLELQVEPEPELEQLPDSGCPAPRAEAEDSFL

[19] = target: RAF proto-oncogene serine/threonine-protein kinase (Homo sapiens) (UniProt P04049); experiment: Inhibition of CRAF (unknown origin) at 0.5 uM relative to control
Sequence of RAF proto-oncogene serine/threonine-protein kinase (Homo sapiens) (P04049 whole entry): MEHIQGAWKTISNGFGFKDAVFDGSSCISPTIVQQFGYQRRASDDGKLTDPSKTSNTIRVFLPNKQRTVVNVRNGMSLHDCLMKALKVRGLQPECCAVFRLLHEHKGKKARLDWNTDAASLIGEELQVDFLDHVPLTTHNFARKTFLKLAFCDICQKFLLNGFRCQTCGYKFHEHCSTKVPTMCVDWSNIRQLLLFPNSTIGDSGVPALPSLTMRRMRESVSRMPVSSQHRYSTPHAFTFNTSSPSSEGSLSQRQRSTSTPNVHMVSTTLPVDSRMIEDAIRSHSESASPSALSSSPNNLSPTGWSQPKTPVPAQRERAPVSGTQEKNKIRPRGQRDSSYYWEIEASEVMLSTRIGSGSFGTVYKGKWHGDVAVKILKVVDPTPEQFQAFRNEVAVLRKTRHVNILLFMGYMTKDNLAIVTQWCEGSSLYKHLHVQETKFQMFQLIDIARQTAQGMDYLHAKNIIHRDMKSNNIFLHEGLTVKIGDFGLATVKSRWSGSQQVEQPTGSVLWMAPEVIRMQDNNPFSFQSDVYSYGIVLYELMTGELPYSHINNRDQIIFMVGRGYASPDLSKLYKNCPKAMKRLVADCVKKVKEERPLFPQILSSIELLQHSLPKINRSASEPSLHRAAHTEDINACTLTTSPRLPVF

[20] = target: Serine/threonine-protein kinase TAO2 (Homo sapiens) (UniProt Q9UL54); experiment: Inhibition of TAOK2 (unknown origin) at 0.5 uM relative to control
[21] = target: Tyrosine-protein kinase ABL2 (Homo sapiens) (UniProt P42684); experiment: Inhibition of ARG (unknown origin) at 0.5 uM relative to control
[22] = target: Macrophage colony-stimulating factor 1 receptor (Homo sapiens) (UniProt P07333); experiment: Inhibition of FMS (unknown origin) at 0.5 uM relative to control
Sequence of Macrophage colony-stimulating factor 1 receptor (Homo sapiens) (P07333 whole entry): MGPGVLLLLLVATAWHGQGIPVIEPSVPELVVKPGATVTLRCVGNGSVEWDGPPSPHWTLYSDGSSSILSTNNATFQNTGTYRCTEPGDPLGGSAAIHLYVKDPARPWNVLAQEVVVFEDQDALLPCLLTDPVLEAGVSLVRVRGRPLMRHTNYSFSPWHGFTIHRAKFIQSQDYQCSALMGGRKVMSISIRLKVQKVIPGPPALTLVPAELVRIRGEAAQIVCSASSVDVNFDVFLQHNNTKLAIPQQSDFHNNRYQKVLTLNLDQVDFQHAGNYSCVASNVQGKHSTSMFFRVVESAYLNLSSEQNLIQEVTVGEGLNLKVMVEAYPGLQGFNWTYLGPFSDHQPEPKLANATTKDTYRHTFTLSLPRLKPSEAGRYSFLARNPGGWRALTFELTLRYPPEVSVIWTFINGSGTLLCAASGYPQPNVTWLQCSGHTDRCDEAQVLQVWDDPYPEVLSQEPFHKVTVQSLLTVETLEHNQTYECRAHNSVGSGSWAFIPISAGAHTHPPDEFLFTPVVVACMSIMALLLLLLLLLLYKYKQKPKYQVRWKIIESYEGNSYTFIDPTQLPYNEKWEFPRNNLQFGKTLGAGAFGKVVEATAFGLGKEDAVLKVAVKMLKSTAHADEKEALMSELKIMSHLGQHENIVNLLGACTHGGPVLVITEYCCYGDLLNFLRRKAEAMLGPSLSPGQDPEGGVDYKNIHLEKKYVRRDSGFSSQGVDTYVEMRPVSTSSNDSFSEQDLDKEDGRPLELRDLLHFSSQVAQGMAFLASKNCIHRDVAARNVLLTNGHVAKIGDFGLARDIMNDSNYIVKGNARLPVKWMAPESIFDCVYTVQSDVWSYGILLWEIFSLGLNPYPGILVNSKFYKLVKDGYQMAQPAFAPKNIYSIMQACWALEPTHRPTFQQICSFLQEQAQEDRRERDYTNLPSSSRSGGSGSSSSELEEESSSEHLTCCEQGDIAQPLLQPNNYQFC

[23] = target: Fibroblast growth factor receptor 2 (Homo sapiens) (UniProt P21802); experiment: Inhibition of FGFR2 (unknown origin) at 0.5 uM relative to control
[24] = target: Serine/threonine-protein kinase MARK1 (Homo sapiens) (UniProt Q9P0L2); experiment: Inhibition of MARK1 (unknown origin) at 0.5 uM relative to control
[25] = target: Platelet-derived growth factor receptor alpha (Homo sapiens) (UniProt P16234); experiment: Inhibition of PDGFR-alpha (unknown origin) at 0.5 uM relative to control
[26] = target: Eukaryotic translation initiation factor 2-alpha kinase 3 (Homo sapiens) (UniProt Q9NZJ5); experiment: Inhibition of PERK (unknown origin) at 0.5 uM relative to control

Row | SMILES | inhibition (MDA-MB-231) | inhibition [2] [%] | inhibition [3] [%] | inhibition (GILM3) | Activity [6] | inhibition [18] [%] | inhibition [19] [%] | inhibition [22] [%] | further results
1 | CNC(=O)c1cc(Oc2ccc(NC(=O)c3nc(SC)[nH]c3-c3ccc(F)cc3)cc2)ccn1 | Active | 91 | 91 | Active | inactive |  |  |  | inhibition [1]: 94%; inhibition [4]: 93%; inhibition [5]: 90%
2 | CSc1nc(C(=O)Nc2ccc(Oc3cc4cnn(C)c4cc3Br)cc2)c(-c2ccc(F)cc2)o1 |  |  |  |  |  |  |  |  | inhibition [7]: 16%; inhibition [8]: 19%; inhibition [9]: 23%; inhibition [10]: 14%; inhibition [11]: 21%; inhibition [12]: 21%; inhibition [13]: 19%; inhibition [14]: 14%; inhibition [15]: 28%; inhibition [16]: 37%; inhibition [17]: 14%
3 | CNC(=O)c1cc(Oc2ccc(NC(=O)c3nc(NC)sc3-c3ccc(F)cc3)cc2)ccn1 |  |  |  |  |  | 61 | 63 |  | inhibition [20]: 44%
4 | CNC(=O)c1cc(Oc2ccc(NC(=O)c3nc(SC)oc3-c3ccc(F)cc3)cc2)ccn1 | Active |  | 55 | Active | inactive | 55 |  |  | inhibition [21]: 40%; inhibition [11]: 40%
5 | CNC(=O)c1cc(Oc2ccc(NC(=O)c3nc(C(F)(F)F)sc3-c3ccc(F)cc3)cc2)ccn1 |  | 52 | 49 |  |  |  |  | 43 | inhibition [1]: 55%; inhibition [21]: 32%; inhibition [16]: 37%
6 | CNC(=O)c1cc(Oc2ccc(NC(=O)c3nc(S(C)(=O)=O)sc3-c3ccc(F)cc3)cc2)ccn1 | Active | 83 | 60 | Active | inactive |  | 11 | 39 | inhibition [23]: 11%
7 | CNC(=O)c1cc(Oc2ccc(NC(=O)c3nc(SC)n(CCN(C)C)c3-c3ccc(F)cc3)cc2)ccn1 |  | 64 |  |  |  | 70 |  | 65 | inhibition [24]: 44%; inhibition [25]: 44%; inhibition [26]: 64%
8 | CNC(=O)c1cc(Oc2ccc(NC(=O)c3nc(SC)oc3-c3ccc(F)cc3)cc2F)ccn1 |  |  | 41 |  |  | 40 |  |  | 
9 | CNC(=O)c1cc(Oc2ccc(NC(=O)c3n[nH]nc3-c3ccc(F)cc3)cc2)ccn1 |  |  |  |  |  | 60 | 57 | 47 | inhibition [5]: 32%; inhibition [13]: 28%; inhibition [14]: 25%
